{"source": "patent US20190133930A1", "about": "“Methods of Anesthetizing Nerve Tissue in the Trigeminal Nerve Pathway and Medical Uses Thereof” (Apollonia, LLC, priority 2014, published 2019)", "format_in_all_cases": "in vitro ADME", "key": {"[1]": {"assay": "MatTek EpiAirway cell monolayer permeability of local anesthetics after excipient pre-treatment", "conditions": "human, pH 6, EpiAirway, 10 mM test article, donor pH 6.0, 37° C., 0.5 hr; excipient: none"}, "[2]": {"assay": "MatTek EpiAirway cell monolayer permeability of local anesthetics after excipient pre-treatment", "conditions": "human, pH 6, EpiAirway, 10 mM test article, donor pH 6.0, 37° C., 0.5 hr", "experimental": "The EpiAirway™ cell line is derived from normal human respiratory airway cells and models the mucosal tissue in the nasal cavity's respiratory airway, the main site of drug absorption following intranasal administration.\nEpiAirway™ tissues were treated with the excipients (0.5% sodium caprate, 0.5% sodium deoxycholate, 0.5% polyoxyethylene 9 lauryl ether, and 0.5% lysophosphatidylcholine) for 20 min. The excipients were then washed off the EpiAirway™ tissues. […] The receiver wells contained standard transport buffer. The fluorescent marker Lucifer Yellow and atenolol (10 μM) were also included to monitor monolayer integrity at the end of the assay. The plates were incubated at 37° C. for 30 min. An aliquot of the receiver chamber was removed for analysis.\nAt the end of the incubation period, the donor plate was removed from the receiver plate. The donor and receiver samples were analyzed and quantified by LC-MS/MS (propranolol used as internal LC-MS standard).\nTo verify the monolayer integrity, aliquots of the cell buffers were analyzed by fluorescence and LC-MS/MS to determine the transport of the impermeable dye Lucifer Yellow and atenolol, respectively.\n(§1) Data are expressed as permeability (Papp): Papp=(dQ/dt)/C0A\n(§2) Where dQ/dt is the rate of permeation, C0 is the initial concentration of test agent, and A is the area of the monolayer.\nFor mass spectroscopy method development, the signal was optimized for each compound by electrospray ionization (ESI) in positive ionization mode. An MS2 scan was used to optimize the precursor ion mass, and an SIM scan was used to optimize the fragmenter voltage. Product ion analysis was used to identify the best fragment and collision energy for analysis.\nFollowing MRM method optimization, a test injection was performed and an ionization ranking was assigned indicating the compound's ease of ionization.\n(§3) Samples were analyzed by LC/MS/MS using an Agilent 6410 mass spectrometer coupled with an Agilent 1200 HPLC and a CTC PAL chilled autosampler, all controlled by MassHunter software (Agilent). After separation on a C18 reverse phase HPLC column (Agilent Zorbax StableBond 3.5 um, 2.1×30 mm) using an acetonitrile-water gradient, peaks were analyzed by mass spectrometry using ESI ionization in MRM mode. Diclofenac was utilized as an analytical internal standard (IS)."}, "[3]": {"system": "Caco-2 cell monolayer", "assay": "Caco-2 cell monolayer apical to basolateral permeability of local anesthetic after excipient pre-treatment", "conditions": "Caco-2; sodium caprate 0.2-2.0% versus no excipient; dose dependent", "experimental": "(§4) A first experiment was performed to test the ability of a mucosal absorption enhancer to promote transport of a local anesthetic agent across a mucosal epithelial cell monolayer. In this experiment, the Caco-2 cell line (an intestinal mucosal cell line) was grown and maintained at a pH of 6.0 for the length of time sufficient to establish tight junctions between the cells in the monolayer. After formation of the monolayer, sodium caprate was administered to the apical side of the Caco-2 cell monolayer at a concentration depending on the given test sample. After 20 minutes, the sodium caprate was washed off of the monolayer. Tetracaine hydrochloride was then administered to the apical side of the Caco-2 cell monolayer at a concentration of 10 mM. An additional test sample including tetracaine but lacking sodium caprate was also administered to the apical side of a separate Caco-2 cell monolayer as a control. The assay duration was 30 minutes. The apical to basolateral permeability rate coefficient of tetracaine across the Caco-2 cell monolayer was determined by LC/MS/MS for each test composition. The permeability rate coefficient (Papp) was based on the percent of the drug that is transported across the epithelial monolayer as a function of time and surface area of the monolayer. Drug permeability across the Caco-2 cell monolayers is a well-known model of transmucosal drug absorption in humans.\n(§5) Caco-2 cells grown in tissue culture flasks were trypsinized, suspended in medium, and the suspensions were applied to wells of a Millipore 96 well Caco-2 plate. The cells were allowed to grow and differentiate for three weeks, feeding at 2-day intervals.\n(§6) The Caco-2 cells were treated with the excipient (sodium caprate) for 20 minutes at concentrations of 0.2%, 0.5%, 1.0%, and 2.0%. The excipient was then washed off of the Caco-2 cell monolayer. For Apical to Basolateral (A→B) permeability, the test agent (10 mM Tetracaine HCl) was added to the apical (A) side and amount of permeation was determined on the basolateral (B) side. The A-side buffer contained 100 μM Lucifer Yellow (LY) dye and 10 μM Atenolol, in Transport Buffer (1.98 g/L glucose in 10 mM HEPES, 1× Hank's Balanced Salt Solution without Mg2+ and Ca2+) pH 6.0 for test articles. The B-side buffer was standard Transport Buffer, pH 7.4. Caco-2 cells were incubated with these buffers for 0.5 hr, and the receiver side buffer was removed for analysis by LC/MS/MS (propranolol used as internal LC/MS standard).\n(§7) To verify that the Caco-2 cell monolayers were properly formed (and remained intact during the assay), aliquots of the cell buffers were analyzed by fluorescence and LC/MS/MS to determine the transport of the impermeable dye Lucifer Yellow and atenolol, respectively. Any deviations from control values are reported.\nas §1, §2\n(§8) For analytical method development, the analyte signal was optimized for each compound by ESI positive or negative ionization mode. An MS2 scan or an SIM scan was used to optimize the fragmenter voltage and a product ion analysis was used to identify the best fragment for analysis, and the collision energy was optimized using a product ion or MRM scan. An ionization ranking was assigned indicating the compound's ease of ionization.\nas §3, with “μm,” for “um,”, “gradient system,” for “gradient,”, “spectrometry (MS)” for “spectrometry”, “mode.” for “mode. Diclofenac was utilized as an analytical internal standard (IS).”"}, "[4]": {"assay": "Caco-2 cell monolayer apical to basolateral permeability of local anesthetic after excipient pre-treatment", "conditions": "human, Caco-2, pH 6, Caco-2, A→B, 10 mM Tetracaine HCl, apical pH 6.0, 0.5 hr", "experimental": "as §4, §5, §6, §7, §1, §2, §8\nas §3, with “μm,” for “um,”, “gradient system,” for “gradient,”, “spectrometry (MS)” for “spectrometry”, “mode.” for “mode. Diclofenac was utilized as an analytical internal standard (IS).”"}, "[5]": {"conditions": "20 min pre-treatment with 0.5% Lysophosphatidylcholine"}, "[6]": {"conditions": "20 min pre-treatment with 0.5% Polyoxyethylene 9 Lauryl Ether"}, "[7]": {"conditions": "20 min pre-treatment with 0.5% Sodium Caprate"}, "[8]": {"conditions": "20 min pre-treatment with 0.5% Sodium Deoxycholate"}}, "note": "Where a name gives a salt, the structure may show the parent alone.", "data": [{"smiles": "CCCCN1CCCCC1C(=O)Nc1c(C)cccc1C", "note": "(stereo not shown) [Bupivacaine, Bupivacaine HCl]", "values": [{"measurement": "Papp A→B at 30 min, 10 mM", "setting": "[1]", "result": 19.2, "unit": "×10⁻⁶ cm/s"}, {"measurement": "Papp A→B at 30 min, 10 mM", "setting": "[2]; [5]", "result": 173, "unit": "×10⁻⁶ cm/s"}, {"measurement": "Papp A→B at 30 min, 10 mM", "setting": "[2]; [6]", "result": 189, "unit": "×10⁻⁶ cm/s"}, {"measurement": "Papp A→B at 30 min, 10 mM", "setting": "[2]; [7]", "result": 116, "unit": "×10⁻⁶ cm/s"}, {"measurement": "Papp A→B at 30 min, 10 mM", "setting": "[2]; [8]", "result": 218, "unit": "×10⁻⁶ cm/s"}]}, {"smiles": "CCCCNc1ccc(C(=O)OCCN(C)C)cc1", "note": "[Tetracaine, Tetracaine HCl]", "values": [{"measurement": "Papp A→B at 30 min, 10 mM", "setting": "[1]", "result": 10.8, "unit": "×10⁻⁶ cm/s"}, {"measurement": "Papp A→B at 30 min, 10 mM", "setting": "[2]; [5]", "result": 71.6, "unit": "×10⁻⁶ cm/s"}, {"measurement": "Papp A→B at 30 min, 10 mM", "setting": "[2]; [6]", "result": 126, "unit": "×10⁻⁶ cm/s"}, {"measurement": "Papp A→B at 30 min, 10 mM", "setting": "[2]; [7]", "result": 56.8, "unit": "×10⁻⁶ cm/s"}, {"measurement": "Papp A→B at 30 min, 10 mM", "setting": "[2]; [8]", "result": 155, "unit": "×10⁻⁶ cm/s"}, {"measurement": "effect of sodium caprate on permeability across a mucosal epithelial cell monolayer", "setting": "[3]", "result": "significantly improved the permeability"}, {"measurement": "Papp A→B at 0.5 hr, 10 mM", "setting": "[4]; 20 min pre-treatment with 0.2% Sodium Caprate", "result": 32.2, "unit": "×10⁻⁶ cm/s"}, {"measurement": "Papp A→B at 0.5 hr, 10 mM", "setting": "[4]; [7]", "result": 55.9, "unit": "×10⁻⁶ cm/s"}, {"measurement": "Papp A→B at 0.5 hr, 10 mM", "setting": "[4]; 20 min pre-treatment with 1.0% Sodium Caprate", "result": 54.8, "unit": "×10⁻⁶ cm/s"}, {"measurement": "Papp A→B at 0.5 hr, 10 mM", "setting": "[4]; 20 min pre-treatment with 2.0% Sodium Caprate", "result": 139, "unit": "×10⁻⁶ cm/s"}, {"measurement": "Papp A→B at 0.5 hr, 10 mM", "setting": "[4]; excipient: None", "result": 17.7, "unit": "×10⁻⁶ cm/s"}]}]}
